These are literature values, as cited in article PMC12315921 (Translational Vision Science & Technology, 2025).

In data set [1] the test system is PKM2.
Data set [2] has as its system PKM2. This is another data set of the same source.

SMILES strings stand for the structures. Like-named read-outs stand apart in the source and are kept apart here.

Take `O=C(COP(=O)(O)O)[C@@H](O)[C@H](O)[C@H](O)COP(=O)(O)O` [FBP, fructose 1,6-biphosphate]: in the data set with PKM2 [1], the AC50 entry was “nanomolar range” and the Kd result is given as “nanomolar range”.
For the molecule `Nc1cccc(S(=O)(=O)N2CCCN(S(=O)(=O)c3ccc4c(c3)OCCO4)CC2)c1` [DASA-58], the figures for the “AC50 of PK activation” value in the data set with PKM2 [2] (in the absence of FBP) and in the data set on PKM2 [2] (in the presence of FBP) were “micromolar” and “low nanomolar”, respectively.
